Molecules are shown by their SMILES.

The target of experiment [1] is GluCl (C. elegans GluClα, GluClcryst) (Caenorhabditis elegans, UniProt G5EBR3, DEL364-421/INS363AGT). Briefly: radioligand competition with [3H]-ivermectin. In kind it is binding.
Experiment [2] has as its target T1, GluCl (C. elegans GluClα, GluClcryst) (Caenorhabditis elegans, UniProt G5EBR3, INS363AGT/DEL364-421).
T1 sequence (G5EBR3 with tags, fused parts or gaps INS363AGT/DEL364-421): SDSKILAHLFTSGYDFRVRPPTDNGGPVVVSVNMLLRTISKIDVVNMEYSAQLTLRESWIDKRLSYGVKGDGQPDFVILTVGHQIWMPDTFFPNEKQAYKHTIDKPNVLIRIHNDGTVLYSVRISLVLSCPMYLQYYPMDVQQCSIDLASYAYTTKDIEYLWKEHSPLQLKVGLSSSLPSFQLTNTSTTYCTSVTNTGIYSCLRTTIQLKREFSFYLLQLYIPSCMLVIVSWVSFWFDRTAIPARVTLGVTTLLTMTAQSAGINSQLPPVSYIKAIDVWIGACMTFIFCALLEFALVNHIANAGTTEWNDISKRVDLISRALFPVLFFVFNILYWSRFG
Briefly: X-ray crystal structure at […] Å. The class given is binding.

Regarding `CCCCCCCC/C=C\CCCCCCCC(=O)O[C@H](COC(=O)CCCCCCCCCCCCCCC)COP(=O)(O)OC[C@H](N)C(=O)O` [POPS, 1-palmitoyl-2-oleoyl-sn-glycero-3-phosphoserine], the inhibition constant (Ki) in experiment [1] came to 167 µM. On to `CCCCCCCC/C=C\CCCCCCCC(=O)O[C@@H](COC(=O)CCCCCCCCCCCCCCC)COP(=O)([O-])OCC[N+](C)(C)C` [POPC, 1-palmitoyl-2-oleoyl-sn-glycero-3-phosphocholine], for which the “X-ray crystal structure at 3.2 Å” value in experiment [2] was “We modeled these densities as POPC molecules with the phosphocholine head group pointing towards the center of the pore”.

(Values after paper PMC4255919 (Nature, 2014).)
